Source: US8889744B2, “Bis-trifluoromethyl honokiol analogs and their use in treating cancers” (priority 2009, dated 2014)
Entries after “also recorded” stand apart in the source; their conditions may differ.

Assays:
SVR cells [1] = assay: SVR tumor volume, SVR cells grown in DMEM with 0.5% or 10% FBS; format: in vivo, mice; details: FIG. 3
Experimental: FIG. 3 is a chart showing the effect of hexafluoro-honokiol on SVR tumor volume […] over time (days) in mice, as compared to control, where the SVR cells were grown in 0.5 and 10% serum Dulbecco's minimal essential media (DMEM).
Having shown that hexafluoro-honokiol appears to show better results than tacrolomis, a further experiment was conducted using SVR cells grown in Dulbecco's Modified Eagle Media (DMEM) supplemented with 0.5% or 10% fetal bovine serum (FBS), according to the techniques described in Bai, et al., J. Biol. Chem., Vol. 278, Issue 37, 35501-35507, Sep. 12, 2003.

Rac-GTP (active Rac) = assay: Rac activation pull-down assay (GST-PBD, Western blot); format: cell-based; details: DAOY medulloblastoma cells, FIG. 1
Experimental: […] Cells were lysed with ice-cold lysis buffer, containing 25 mM HEPES pH 7.5, 150 mM NaCl, 1% NP-40, 10 mM MgCl2, 1 mM EDTA, 10% glycerol and protease inhibitors. A sample was kept for total Rac and Ras level analysis.
The remaining lysate was used for the pull-down (Western Blot) assay to isolate the GTP-loaded forms of Rac or Ras using the p21-binding domain of PAK1 fused to glutathione S-transferase (GST-PBD) (Glaven et al., J. Biol. Chem., 274, 2279-2285 (1999)). The GST-PBD fusion protein was prepared as previously described (Abassi, Y. and Vuori, K. EMBO J. 21, 4571-4582 (2002)).
Activated (GTP-bound) Rac was affinity-precipitated with p21-activated kinase-1 protein binding domain peptide, which binds only to Rac-GTP and not Rac-GDP. p21-Activated kinase-1 protein binding domain-agarose (7.5 μg/mg cell lysate) was added, and the reaction mixture was gently rocked at 4° C. for 60 min. The agarose beads were collected by pulsing for 5 s in a microcentrifuge at 14,000×g, and the beads were washed three times with 0.5 ml of lysis buffer.
The agarose beads were resuspended in 40 μl of 1×SDS sample buffer and boiled for 5 min. The supernatant was separated by SDS-PAGE on a 12% gel, and the proteins were transferred to nitrocellulose membrane. […] After incubation with the secondary antibody, Rac and Ras were detected by enhanced chemiluminescence.

[2] = system: A375 human melanoma cells; assay: Human melanoma xenograft A375 in nude mice; format: in vivo; details: 120 mg/kg daily intraperitoneal, FIG. 4
Experimental: The compound was evaluated in conjunction with control, and with a different honokiol analogue, the bis-dichloroacetate. A375 human melanoma cells were injected into nude mice (3 mice pre treatment group) and received vehicle (intralipid) or 120 mg/kg honokiol bisdichloroacetate ester (honokiol DCA) or hexafluoro, via daily intraperitoneal administration. The volume of the tumors was calculated by the formula volume=(width squared times length) 0.52, where width is the shortest dimension.

SVR angiosarcoma cells = assay: In vivo tumorigenesis, SVR tumor model in mice
Experimental: SVR (5×10^5) cells were injected into the flank of 6-week-old nude male mice obtained from Charles River Breeding Laboratories. When tumors became visible at approximately 1 week after inoculation, mice received 3 mg/day hexafluoro-honokiol, tacrolomis, or vehicle control suspended in 20% Intralipid (Baxter Healthcare, Deerfield, Ill.) in a total volume of 0.3 ml intraperitoneally. Tumor volume was measured using the formula (width^2×length)×0.52 where width represents the shortest dimension.
The efficacy of the hexafluoro-honokiol compound was then tested in an SVR tumor model in mice, and compared to that of a control and to Tacrolimis. The assay was performed according to the conditions in J Biol Chem. 2003 Sep. 12; 278(37):35501-7, the contents of which are hereby incorporated by reference.
Nude mice injected with 0.5 million SVR angiosarcoma cells were treated with hexafluoro-honokiol (120 mg/kg), Tacrolimis, or control (Cancer Res. 2009 Jun. 1; 69(11):4621-8), with a total of 4 mice in each group. […] The degree of inhibition with hexafluoro-honokiol was more marked than with the same dose of Tacrolimis.

SVR cells [3] = details: in vitro; cited from earlier work
[4] = system: primary human endothelial cells; details: cited from earlier work
angiosarcoma = details: nude mice; cited from earlier work

Molecule | tumor volume over time versus control (SVR cells [1]) | levels of total Rac (Rac-GTP (active Rac)) | levels of Rac-GTP (active Rac) (Rac-GTP (active Rac); with PDGF-BB) | efficacy of the two compounds compared with each other [2] | tumor volume versus control [2] | weight loss or other toxicities (SVR angiosarcoma cells; 3 mg/day intraperitoneally in 20% Intralipid) | tumor volume versus control (SVR angiosarcoma cells; 120 mg/kg (3 mg/day) intraperitoneally, FIG. 2) | degree of inhibition of tumor volume compared with Tacrolimis (SVR angiosarcoma cells; same dose, FIG. 2) | anti-proliferative activity against SVR cells (SVR cells [3]) | inhibition of primary human endothelial cells compared with fibroblasts [4] | efficacy against angiosarcoma (angiosarcoma)
C=CCc1cc(C(c2ccc(O)c(CC=C)c2)(C(F)(F)F)C(F)(F)F)ccc1O [hexafluoro-honokiol, 2,2-bis(3-allyl-4-hydroxy-phenyl)-1,1,1,3,3,3-hexafluoropropane] | significantly better than control | not decreased | significantly decreased; also recorded: disappearance of RAC-GTP | comparable efficacy | significantly better than control | No weight loss or other toxicities were observed | significantly different at all time points | more marked | – | – | –
C=CCc1ccc(OC(=O)C(Cl)Cl)c(-c2ccc(OC(=O)C(Cl)Cl)c(CC=C)c2)c1 [honokiol bis-dichloroacetate, honokiol bisdichloroacetate ester, reference compound] | – | – | – | comparable efficacy | significantly better than control | – | – | – | – | – | –
honokiol | – | – | – | – | – | – | – | – | potent anti-proliferative activity | preferential inhibition | highly effective
